Assay results from publication PMC9712021 (Advances in Pharmacological and Pharmaceutical Sciences, 2022).

How the values were obtained:
Artemia salina = Artemia salina bioassay (brine shrimp lethality bioassay)
Experimental: This test was carried out with a slight modification, as described by Amaral et al.. Briefly, shrimp cysts were incubated in a small aquarium containing a brine solution (50 mg of cysts and 300 mL of brine) for 48 h with direct lighting. […] […] In the negative (NC) and positive (PC) control groups, saline solution and potassium dichromate (K2Cr2O7) were added, respectively. The concentration range used in the case of the PC group was 31.25 to 500 μg/mL.

[1] = Hemolytic activity in mice erythrocytes; type: cell-based, Mus musculus; details: male, Swiss albino, mouse, 37°C, 2 h
Experimental: (§1) This test was performed on adult Swiss albino mouse (Mus musculus) erythrocytes. The mouse was collected from the Central Animal House of the Federal University of Piaui, Brazil. It was allowed free access to standard food and water ad libitum and was kept under controlled lighting (12 h dark/light cycles) at 24 ± 2°C. Blood was collected from the retro-orbital plexus of the mouse (male, 24 gm body weight). Hemolytic activity in mouse erythrocytes was performed, according to Jamialahmadi et al..

mouse erythrocytes = assay: Hemolytic activity in mice erythrocytes; type: cell-based; details: for Hemolysis (%): 37°C, 2 h
Experimental: as §1

[2] = tested on: S. cerevisiae EG103 (SODWT); assay: S. cerevisiae central disc test, oxidative damage, strain SODWT; type: cell-based, Saccharomyces cerevisiae
Description: (§2) The central disc test was done according to the method presented by Islam et al.. Superoxide dismutase (CuZnSOD-Sod1) is a cytosolic enzyme that is faulty in strain EG118, whereas mitochondrial SOD is faulty in strain EG110 (MnSOD-Sod2). The strain EG133 has both Sod1 and Sod2 defects, while EG223 has a cytosolic catalase deficiency (Cat1). While EG103 is a competent strain that is identical to the wild-type (SODWT), EG is a dual isogenic strain for the Sod1 and Cat1 genes.

[3] = tested on: S. cerevisiae EG118 (Sod1∆); assay: S. cerevisiae central disc test, oxidative damage, strain Sod1∆; type: cell-based, Saccharomyces cerevisiae
Description: as §2

[4] = tested on: S. cerevisiae EG110 (Sod2∆); assay: S. cerevisiae central disc test, oxidative damage, strain Sod2∆; type: cell-based, Saccharomyces cerevisiae
Description: as §2

[5] = tested on: S. cerevisiae EG133 (Sod1∆Sod2∆); assay: S. cerevisiae central disc test, oxidative damage, strain Sod1∆Sod2∆; type: cell-based, Saccharomyces cerevisiae
Description: as §2

[6] = tested on: S. cerevisiae EG223 (Cat1∆); assay: S. cerevisiae central disc test, oxidative damage, strain Cat1∆; type: cell-based, Saccharomyces cerevisiae
Description: as §2

[7] = tested on: S. cerevisiae EG (Sod1∆Cat1∆); assay: S. cerevisiae central disc test, oxidative damage, strain Sod1∆Cat1∆; type: cell-based, Saccharomyces cerevisiae
Description: as §2

[8] = tested on: S. cerevisiae strains (SODWT, Sod1Δ, Sod2Δ, Cat1Δ, Sod1/Sod2Δ, Cat1Δ/Sod1Δ); assay: In vivo antioxidant (S. cerevisiae) test, all strains tested; type: cell-based, Saccharomyces cerevisiae
Description: as §2

CC(C)CCCC(C)CCO (stereo not drawn) [3,7-Dimethyl-1-octanol, 3,7-dimethyl-1-octanol]
cytotoxic effects in the A. Salina test (Artemia salina; 31.25–500 μg/mL): did not exhibit significant cytotoxic effects | concentration from which toxicity increased in a dose-dependent manner (Artemia salina; 48 h of exposure): 125 µg/mL | hemolysis at 2 h, 31.25 μg/mL ([1]; mouse erythrocyte suspension, pH 7.4, 31.25 μg/mL): 3.66 ± 0.64% | hemolysis at 2 h, 62.5 μg/mL ([1]; mouse erythrocyte suspension, pH 7.4, 62.5 μg/mL): 4.53 ± 0.06% | hemolysis at 2 h, 250 μg/mL ([1]; mouse erythrocyte suspension, pH 7.4, 250 μg/mL): 5.64 ± 0.74% | hemolysis at 2 h, 500 μg/mL ([1]; mouse erythrocyte suspension, pH 7.4, 500 μg/mL): 5.66 ± 0.56% | hemolysis at 2 h, 125 μg/mL ([1]; pH 7.4, 125 μg/mL): 5.33 ± 0.75% | cytotoxic effects in the hemolysis test (mouse erythrocytes; 31.25–500 μg/mL): did not exhibit significant cytotoxic effects | oxidative damage ([2]; 0.9 μg/mL): 1.50 ± 0.70 | oxidative damage ([2]; 1.8 μg/mL): 1.50 ± 0.70 | oxidative damage ([2]; 7.2 μg/mL): 2.50 ± 0.70 | oxidative damage ([2]; 14.4 μg/mL): 2.00 ± 1.41 | oxidative damage ([2]; 32 μg/mL): 2.00 ± 0.00 | oxidative damage ([2]; 64 μg/mL): 1.50 ± 0.70 | oxidative damage ([2]; 128 μg/mL): 1.00 ± 1.41 | oxidative damage ([2]; 3.6 mg/mL): 2.00 ± 0.00 | oxidative damage ([2]; 256 mg/mL): 0.50 ± 0.70 | oxidative damage ([2]; 500 mg/mL): 2.50 ± 0.70 | oxidative damage ([3]; 0.9 μg/mL): 0.50 ± 0.70 | oxidative damage ([3]; 1.8 μg/mL): 0.00 ± 0.00 | oxidative damage ([3]; 7.2 μg/mL): 1.00 ± 0.00 | oxidative damage ([3]; 14.4 μg/mL): 1.00 ± 1.41 | oxidative damage ([3]; 32 μg/mL): 2.50 ± 0.70 | oxidative damage ([3]; 64 μg/mL): 3.00 ± 0.00 | oxidative damage ([3]; 128 μg/mL): 1.50 ± 0.70 | oxidative damage ([3]; 3.6 mg/mL): 1.50 ± 0.70 | oxidative damage ([3]; 256 mg/mL): 2.50 ± 0.70 | oxidative damage ([3]; 500 mg/mL): 3.00 ± 0.00 | oxidative damage ([4]; 0.9 μg/mL): 1.50 ± 0.70 | oxidative damage ([4]; 1.8 μg/mL): 2.00 ± 0.00 | oxidative damage ([4]; 7.2 μg/mL): 2.50 ± 0.70 | oxidative damage ([4]; 14.4 μg/mL): 1.50 ± 0.70 | oxidative damage ([4]; 32 μg/mL): 3.00 ± 0.00 | oxidative damage ([4]; 64 μg/mL): 1.00 ± 0.00 | oxidative damage ([4]; 128 μg/mL): 1.50 ± 0.70 | oxidative damage ([4]; 3.6 mg/mL): 2.50 ± 0.70 | oxidative damage ([4]; 256 mg/mL): 1.00 ± 1.41 | oxidative damage ([4]; 500 mg/mL): 2.50 ± 0.70 | oxidative damage ([5]; 0.9 μg/mL): 1.50 ± 0.70 | oxidative damage ([5]; 1.8 μg/mL): 1.00 ± 1.41 | oxidative damage ([5]; 7.2 μg/mL): 2.50 ± 0.70 | oxidative damage ([5]; 14.4 μg/mL): 2.00 ± 0.00 | oxidative damage ([5]; 32 μg/mL): 2.50 ± 0.70 | oxidative damage ([5]; 64 μg/mL): 3.50 ± 0.70 | oxidative damage ([5]; 128 μg/mL): 3.50 ± 0.70 | oxidative damage ([5]; 3.6 mg/mL): 2.00 ± 1.41 | oxidative damage ([5]; 256 mg/mL): 3.00 ± 1.41 | oxidative damage ([5]; 500 mg/mL): 2.50 ± 0.70 | oxidative damage ([6]; 0.9 μg/mL): 2.50 ± 0.70 | oxidative damage ([6]; 1.8 μg/mL): 3.50 ± 0.70 | oxidative damage ([6]; 7.2 μg/mL): 4.00 ± 0.00 | oxidative damage ([6]; 14.4 μg/mL): 3.50 ± 0.70 | oxidative damage ([6]; 32 μg/mL): 3.50 ± 2.12 | oxidative damage ([6]; 64 μg/mL): 3.50 ± 0.70 | oxidative damage ([6]; 128 μg/mL): 3.50 ± 2.12 | oxidative damage ([6]; 3.6 mg/mL): 2.50 ± 0.70 | oxidative damage ([6]; 256 mg/mL): 2.50 ± 2.12 | oxidative damage ([6]; 500 mg/mL): 3.00 ± 1.41 | oxidative damage ([7]; 0.9 μg/mL): 2.50 ± 0.70 | oxidative damage ([7]; 1.8 μg/mL): 3.00 ± 0.00 | oxidative damage ([7]; 7.2 μg/mL): 3.00 ± 1.41 | oxidative damage ([7]; 14.4 μg/mL): 2.00 ± 2.82 | oxidative damage ([7]; 32 μg/mL): 3.50 ± 0.70 | oxidative damage ([7]; 64 μg/mL): 3.00 ± 1.41 | oxidative damage ([7]; 128 μg/mL): 4.00 ± 1.41 | oxidative damage ([7]; 256 μg/mL): 3.00 ± 0.00 | oxidative damage ([7]; 3.6 mg/mL): 4.00 ± 1.41 | oxidative damage ([7]; 500 mg/mL): 3.50 ± 0.70 | percentage modulation of oxidative damage caused by the stressor H2O2 ([8]; all strains and concentrations tested): more than 60% | induction of oxidative damage ([8]; any concentration, any of the tested S. cerevisiae strains): did not induce oxidative damage

OO [H2O2, hydrogen peroxide, reference compound]
oxidative damage ([2]; 10 mM, positive control): 30.75 ± 5.0^∗∗ | oxidative damage ([3]; 10 mM, positive control): 25.5 ± 4.2^∗∗ | oxidative damage ([4]; 10 mM, positive control): 25.25 ± 6.18^∗∗ | oxidative damage ([5]; 10 mM, positive control): 27.00 ± 5.09^∗∗ | oxidative damage ([6]; 10 mM, positive control): 24.25 ± 4.03^∗∗ | oxidative damage ([7]; 10 mM, positive control): 22.25 ± 4.57^∗∗

Triton X-100 [reference compound]
Hemolysis (%) (mouse erythrocytes; 31.25 μg/mL): 100 ± 0.00^∗ % | Hemolysis (%) (mouse erythrocytes; 62.5 μg/mL): 100 ± 0.00^∗ % | Hemolysis (%) (mouse erythrocytes; 125 μg/mL): 100 ± 0.00^∗ % | Hemolysis (%) (mouse erythrocytes; 250 μg/mL): 100 ± 0.00^∗ % | Hemolysis (%) (mouse erythrocytes; 500 μg/mL): 100 ± 0.00^∗ %
